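Test compounds were applied to cells in 96-well plates for 48 hours at 5 doses. Here, GI50 denotes the concentration required for 50% inhibition of growth. TGI is the concentration that stops growth completely.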

The values below come from PubChem BioAssay (NCI).

Holding throughout (test): DTP human tumour cell line panel, 48 h
Assay [1] deals with LOX IMVI melanoma.
The test system of assay [2] is M14 melanoma.
Assay [3] has as its system NCI-H226 lung.
Assay [4] has as its system NCI-H460 lung.
For assay [5], the system named is OVCAR-5 ovarian.
The subject of assay [6] is SK-MEL-2 melanoma.
In assay [7] the test system is SN12C renal.
The test system of assay [8] is SW-620 colon.
Assay [9] deals with U251 CNS.
For assay [10], the system named is UACC-257 melanoma.

For orientation: GI50 means the concentration at which growth is held to half of that of the control. Usually TGI stands for the concentration giving total growth inhibition. Low values mean more potent growth arrest, high ones less potent growth arrest. Consider `CC(C)[C@@]12C[C@@H](OC(=O)C3CO3)[C@@](C)(O1)[C@@H]1CC[C@@H](C)[C@H]1[C@@H]2OC(=O)/C=C/c1ccccc1` (stereo not given in full), for which the GI50 is 17 µM in [1]; 24.4 µM in assay [2]; 13.5 µM in assay [3]; 17.2 µM in [4]; 19.3 µM in assay [5]; 19.1 µM in assay [6]. Besides, the GI50 in assay [7] was 11.9 µM; in [8], 18.5 µM; in assay [9], 18.7 µM; in assay [10] it was 19.2 µM. In addition, the TGI in assay [1] turned out to be 36.7 µM; in assay [2], 88.5 µM; in assay [3], 29.3 µM; in [4], 34.2 µM; in [5], 47.9 µM; in assay [6], 42.8 µM. Moreover, the TGI in [7] is 32.5 µM; in assay [8], 39.3 µM; in assay [9] it was 44.3 µM; in assay [10] it was 39.4 µM.

Consider `O=C(Nc1ccc(I)cc1F)c1cc(Br)ccc1O`, for which the GI50 was 0.474 µM in assay [1]; 0.603 µM in assay [2]; 1.28 µM in [3]; 0.452 µM in assay [4]; 4.01 µM in [5]; 0.386 µM in [6]. Besides, the GI50 in [7] is 0.416 µM; in [8], 0.849 µM; in [9], 0.754 µM; in assay [10], 0.707 µM. The TGI was 2.75 µM in assay [1]; 4.49 µM in [2]; 4.41 µM in assay [3]; 8.05 µM in assay [4]; over 100 µM in assay [5]; 2.18 µM in assay [6]. In addition, the TGI in assay [7] was 4.09 µM; in assay [8], 9.47 µM; in assay [9], over 100 µM; in assay [10], 4.29 µM.
